Legend:
[1] = system: Salmonella enterica subsp. enterica serovar Virchow; assay: (§1) Antimicrobial activity against Salmonella enterica serotype Virchow isolate AM23818 expressing rmtC rRNA methyltransferase gene by broth microdilution method; type: functional
[2] = system: Salmonella enterica subsp. enterica serovar Stanley; assay: (§2) Antimicrobial activity against Salmonella enterica serotype Stanley isolate AM04864 expressing armA rRNA methyltransferase gene by broth microdilution method; type: functional
[3] = as §1; type: functional, Salmonella enterica subsp. enterica serovar Virchow
[4] = as §2; type: functional, Salmonella enterica subsp. enterica serovar Stanley

In the case of GENTAMICIN, the MIC [1] is reported as > 16 µg/mL and the MIC [2] is reported as > 16 µg/mL.

In the case of `NCC[C@H](O)C(=O)N[C@@H]1C[C@H](N)[C@@H](O[C@H]2O[C@H](CN)[C@@H](O)[C@H](O)[C@H]2O)[C@H](O)[C@H]1O[C@H]1O[C@H](CO)[C@@H](O)[C@H](N)[C@H]1O` [AMIKACIN], the MIC [3] is reported as > 64 µg/mL and the MIC [4] is reported as > 64 µg/mL.

For `NC[C@H]1O[C@H](O[C@H]2[C@H](O)[C@@H](O[C@H]3O[C@H](CO)[C@@H](O)[C@H](N)[C@H]3O)[C@H](N)C[C@@H]2N)[C@H](O)[C@@H](O)[C@@H]1O` [KANAMYCIN], the MIC [3] was > 64 µg/mL and the MIC [4] was > 64 µg/mL.

Reference: ChEMBL document CHEMBL1649210, “Identification of the aminoglycoside resistance determinants armA and rmtC among non-Typhi Salmonella isolates from humans in the United States” (2009)
